Measured values: patent US7407940B2, “Antimicrobial hexapeptides” (Helix BioMedix Inc., priority 2005, dated 2008)
Where two headings read alike, the source gives them in different places. Where a SMILES comes first, the peptide text is derived from it. Where no end group is shown, it is not given here. [ ]: non-standard residue; d: D form. The star is where a group is joined. Undecanoyl = CCCCCCCCCCC(=O)*; Lauroyl = CCCCCCCCCCCC(=O)*; Octanoyl = CCCCCCCC(=O)*

Key:
P. aeruginosa = type: cell-based; settings: combined with polymyxin B
Description: (§1) The fractional inhibitory concentration (FIC) index was used to determine the synergy between antimicrobial agents. Peptide MICs against test microorganisms were determined three times on separate occasions. […]

S. aureus MRSA = assay: Kill kinetics in lipid (liposome) environment with or without serum; type: cell-based; settings: peptide 0.5 mg/ml; liposomes, presence or absence of serum
Text: Referring to FIG. 8, not only does lipidation improve the activity of hexapeptides in serum it improves activity in a lipid environment which is a mimic of the human acne lesion environment. The human sebaceous gland secretion, also called sebum, contains squalene, cholesterol, cholesterol esters, wax esters, and triglycerides in which a large […] of P. acnes appears to take advantage of this environment and hydrolyzes certain sebaceous lipids. The pre-pubertal and pubertal increase in sebum secretion is almost certainly involved in the pathogenesis of adolescent acne. The activity of SEQ ID NO: 55 was studied in this environment compared to P64(SEQ ID NO:90), a traditional cationic antimicrobial peptide. Due to the fact that most lipids are water insoluble, peptide-liposomes composed of phosphatidylcholine, phosphatidylglycerol and cholesterol in the molar ratio of 7:2:1 in saline were used and kill kinetics of the peptides were assessed in the presence or absence of serum.

MRSA = assay: Kill curve in 10% sheep serum-phosphate buffer against MRSA; type: cell-based, S. aureus; design: MRSA count in kill curve: unit not given here
S. epidermidis ATCC12228 = assay: MIC, broth microdilution, S. epidermidis; type: cell-based; design: unit not given beside the values; settings: #86: S. epidermidis ATCC12228
Description: (§2) MICs (minimal inhibitory concentrations) were determined for the hexapeptides of interest using a slightly modified version of the NCCLS (National Committee for Clinical Laboratory Standards) broth microdilution method as described previously (Steinberg et al., AAC 41: 1738, 1997). Briefly, antimicrobial agents were prepared as 10× concentrates in the most appropriate solvent. For the hexapeptide, 0.01% acetic acid containing 0.2% bovine serum albumin as a carrier protein was used. Inocula were prepared by resuspending colonies from a BAP (please spell out this term) in medium and adjusting the suspension to match that of a 0.5 McFarland standard. The suspension was diluted into fresh medium (as recommended by NCCLS for the organism) to give 2×10^5 to 7×10^5 CFU/ml for bacteria or 2×10^3 to 7×10^3 CFU/ml for Candida. After dispensing 100 μl aliquots of the microbial suspension into each well of a 96-well polypropylene microtiter plate, 11 μl of test compound was added. The MIC was defined as the lowest concentration of drug which prevented visible turbidity after 16 to 20 hours (bacteria) or 46 to 50 hours (Candida) at 35° C.

[1] = test system: azole resistant strains of C. albicans; type: cell-based; design: MIC-SEQ ID NO: 55 + azole, peptide part / MIC-SEQ ID NO: 55 + azole, azole part: unit not given beside the values; settings: in combination with clotrimazole
Description: as §1
All strains are azole resistant clinical isolates from Prof. Ted White (Seattle Biotechnology Research Institute, Seattle)

Pseudomonas aeruginosa = type: cell-based; design: MIC, lipid length SAR: unit not given here; settings: P.aeruginosa
Summary of the method: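 Modified NCCLS broth microdilution; hexapeptide in 0.01% acetic acid with 0.2% BSA, added to inocula of 2×10^5–7×10^5 CFU/ml (bacteria) or 2×10^3–7×10^3 CFU/ml (Candida) in polypropylene plates. MIC is lowest concentration preventing visible turbidity after 16–20 h (bacteria) or 46–50 h (Candida) at 35° C.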

P. acnes = assay: Activity against extended panel of P. acnes; type: cell-based; design: unit not given here
Text: A very promising application for short bioactive peptides is for dermatological indications such as acne.

[2] = test system: Salmonella typhimurium 14028S; assay: MIC, broth microdilution, S. typhimurium; type: cell-based; design: unit not given here; settings: S.typhimurium
Description: as §2

[3] = test system: Trychophyton mentagrophytes; assay: MIC100 against dermatophyte Trychophyton mentagrophytes; type: cell-based; settings: T. mentagrophytes; 125 ppm, day ten
Description: (§3) In order to compare the activity of various antimicrobial peptides, including hexapeptide SEQ ID NO:1 (P0666), MIC were determined against the dermatophytes Trychophyton rubrum and Trychophyton mentagrophytes. The concentration of samples investigated were: 2000, 1000, 500, 250 and 125 μg/ml, respectively. The medium used was modified Sabouraud's media without agar. For a 100 mL of modified Sabouraud medium: 3 g of Sabouraud's dextrose broth (Difco) was mixed into 100 mL of deionized water. The pH was adjusted to 7.0 with 0.1 N NaOH. The solution was autoclaved for thirty minutes. 940 μL of medium was poured into sterile 20 mL test tubes with plastic caps and was allowed to cool.
(§4) 50 μL of […] was added to each 20 mL test tube to make the required concentration. A control tube was composed of 50 μL of saline without sample. For the MIC experiments,
(§5) 10 μL of organism suspended in saline was added to the each 20 mL test tube and vortexed slightly. Each of the test tubes was covered in parafilm and maintained on a shaker at 27° C. at a speed of approximately 100 rpm.
(§6) The growth/inhibition of the organism was observed on a daily basis. […] The Minimum Inhibition Concentration (MIC100) for compounds F1 to F10 against fungus Trychophyton rubrum and Trychophyton mentagrophytes at 10 days.

Trychophyton rubrum = assay: MIC100 against dermatophyte Trychophyton rubrum; type: cell-based; settings: T. rubrum; 125 ppm, day ten
Description: as §3, §4, §5, §6

[4] = Systemic toxicity, tail vein injection; type: in vivo; settings: mouse, IV, 20 mg/kg
S. aureus = assay: Kill curve in 80% serum, S. aureus; type: cell-based
Text: It should be noted that in addition to MIC data, the lipo-hexapeptides can also be distinguished by their ability to kill bacteria in the presence of biological constituents such as serum. […] This activity, an indicator of therapeutic potential, is not obvious from the MIC data alone.

## CCCCCCCC(=O)N[C@@H](CCCCN)C(=O)N[C@@H](Cc1ccccc1)C(=O)N[C@@H](CCCCN)C(=O)N[C@@H](Cc1c[nH]c2ccccc12)C(=O)N1CCC[C@H]1C(=O)N[C@@H](Cc1c[nH]c2ccccc12)C(N)=O [SEQ ID NO: 55, OCT-KFKWPW-NH2] (Octanoyl-KFKWPW-NH2)
P. aeruginosa; P. aeruginosa 100609
  MIC-NO: 55 combined: 2 µg/mL
P. aeruginosa; P. aeruginosa H187
  MIC-NO: 55 combined: 8 µg/mL
P. aeruginosa; P. aeruginosa H401
  MIC-NO: 55 combined: 2 µg/mL
P. aeruginosa; P. aeruginosa M917
  MIC-NO: 55 combined: 16 µg/mL
S. aureus MRSA
  kill kinetics in lipid environment (in words): shown to be effective
MRSA; buffer, 1 mg/ml, 30 min
  MRSA count in kill curve: 100
MRSA; buffer, 1 mg/ml, 1 hour
  MRSA count in kill curve: 100
MRSA; buffer, 1 mg/ml, 2 hours
  MRSA count in kill curve: 10
MRSA; buffer, 1 mg/ml, 3 hours
  MRSA count in kill curve: 10
MRSA; buffer, 1 mg/ml, 4 hours
  MRSA count in kill curve: 10
MRSA; buffer, 1 mg/ml, 5 hours
  MRSA count in kill curve: 10
MRSA; serum, 0.5 mg/ml, 30 min
  MRSA count in kill curve: 10
MRSA; serum, 0.5 mg/ml, 1 hour
  MRSA count in kill curve: 10
MRSA; serum, 0.5 mg/ml, 2 hours
  MRSA count in kill curve: 10
MRSA; serum, 0.5 mg/ml, 3 hours
  MRSA count in kill curve: 10
MRSA; serum, 0.5 mg/ml, 4 hours
  MRSA count in kill curve: 10
MRSA; serum, 0.5 mg/ml, 5 hours
  MRSA count in kill curve: 10
MRSA; serum, 1 mg/ml, 30 min
  MRSA count in kill curve: 3900
MRSA; serum, 1 mg/ml, 1 hour
  MRSA count in kill curve: 1100
MRSA; serum, 1 mg/ml, 2 hours
  MRSA count in kill curve: 100
MRSA; serum, 1 mg/ml, 3 hours
  MRSA count in kill curve: 30
MRSA; serum, 1 mg/ml, 4 hours
  MRSA count in kill curve: 20
MRSA; serum, 1 mg/ml, 5 hours
  MRSA count in kill curve: 60
MRSA; serum, 2 mg/ml, 30 min
  MRSA count in kill curve: 1000000
MRSA; serum, 2 mg/ml, 1 hour
  MRSA count in kill curve: 1000000
MRSA; serum, 2 mg/ml, 2 hours
  MRSA count in kill curve: 1000000
MRSA; serum, 2 mg/ml, 3 hours
  MRSA count in kill curve: 1000000
MRSA; serum, 2 mg/ml, 4 hours
  MRSA count in kill curve: 1000000
MRSA; serum, 2 mg/ml, 5 hours
  MRSA count in kill curve: 1000000
S. epidermidis ATCC12228
  MIC: 8
[1]; C. albicans #185
  MIC-SEQ ID NO: 55 + azole, peptide part: 16
[1]; C. albicans #186
  MIC-SEQ ID NO: 55 + azole, peptide part: 2
[1]; C. albicans #187
  MIC-SEQ ID NO: 55 + azole, peptide part: 4
[1]; C. albicans #192
  MIC-SEQ ID NO: 55 + azole, peptide part: 4
[1]; C. albicans #196
  MIC-SEQ ID NO: 55 + azole, peptide part: 4
[1]; C. albicans #199
  MIC-SEQ ID NO: 55 + azole, peptide part: 4
Pseudomonas aeruginosa
  MIC, lipid length SAR: 32
P. acnes; ATCC 6921
  Activity (MIC) against P. acnes: 4
P. acnes; ATCC 6922
  Activity (MIC) against P. acnes: 8
P. acnes; ATCC 6923
  Activity (MIC) against P. acnes: 8
P. acnes; ATCC 11828
  Activity (MIC) against P. acnes: 8
P. acnes; ATCC 12930
  Activity (MIC) against P. acnes: 8
P. acnes; ATCC 25746
  Activity (MIC) against P. acnes: 1
P. acnes; ATCC 29399
  Activity (MIC) against P. acnes: 16
P. acnes; ATCC 33179
  Activity (MIC) against P. acnes: 16
P. acnes; ATCC 49929
  Activity (MIC) against P. acnes: 0.125
P. acnes; ATCC 51277
  Activity (MIC) against P. acnes: 4
[2]
  MIC, lipid length SAR: 32

## KFKWPW-NH2 [SEQ ID NO:1]
[3]
  growth of organism: only a slight growth
Trychophyton rubrum
  growth of organism: only a slight growth
[4]; solvent water
  Result (systemic toxicity): did not elicit systemic toxicity

## KYKKALKKLAKLL-NH2 [SEQ ID NO:92]
[4]; solvent ringers
  Result (systemic toxicity): 3/3 dead

## Lau-kfkwpw-NH2 (Lauroyl-[dK][dF][dK][dW][dP][dW]-NH2; SMILES CCCCCCCCCCCC(=O)N[C@H](CCCCN)C(=O)N[C@H](Cc1ccccc1)C(=O)N[C@H](CCCCN)C(=O)N[C@H](Cc1c[nH]c2ccccc12)C(=O)N1CCC[C@@H]1C(=O)N[C@H](Cc1c[nH]c2ccccc12)C(N)=O) [SEQ ID NO: 83]
S. aureus
  killing of S. aureus in 80% serum (in words): perform very well

## Und-KFKWPW-NH2 (Undecanoyl-KFKWPW-NH2; SMILES CCCCCCCCCCC(=O)N[C@@H](CCCCN)C(=O)N[C@@H](Cc1ccccc1)C(=O)N[C@@H](CCCCN)C(=O)N[C@@H](Cc1c[nH]c2ccccc12)C(=O)N1CCC[C@H]1C(=O)N[C@@H](Cc1c[nH]c2ccccc12)C(N)=O) [SEQ ID NO: 79]
S. aureus
  killing of S. aureus in 80% serum (in words): perform very well
Pseudomonas aeruginosa
  MIC, lipid length SAR: 8-16
[2]
  MIC, lipid length SAR: 8-16
